# Test results as given in publication PMC7703437, “In Vitro Hepatic Metabolism of Curcumin Diethyl Disuccinate by Liver S9 from Different Animal Species” (Frontiers in Pharmacology, 2020).
# Where “and” joins values, the source holds several entries; their conditions need not be identical. Equal entries are not always repeated.
# Legend:
# [1] = parameters: method as in Muangnoi et al., 2019b; details: ref Muangnoi et al., 2019b; cited from earlier work
# [2] = test system: RLS9; test: CDD depletion in RLS9 0.02 mg/ml (optimisation of incubation condition); type: in vitro ADME, rat; details: CDD 3 μM
# Description: The metabolism profiles of CDD and curcumin formation profile were investigated against HLS9, MLS9, DLS9 and RLS9. A stock solution of CDD was prepared at 150 µM in 50% acetonitrile in water before use. The metabolism study was initiated by spiking a 588 µl pre-incubated LS9 with 12 µl CDD stock solution, and subsequently incubated at 37°C. The final concentrations of CDD and LS9 were 3 µM and 0.02 mg/ml, respectively. A 50 µl aliquot from the mixture was collected at 0.5, 1, 2, 3, 4, 5, 10, 15, 30, 45 and 60 min and was immediately mixed with 100 µl of ice-cold acetonitrile containing 0.45 µM of internal standard DMC to terminate the metabolic reaction. […] Samples of 120 µl of supernatant wee diluted with 40 µl of water prior to UHPLC analysis (Agilent series 1290, Agilent Technology, USA) by means of protocol outlined in Materials and Methods:“In vitro Metabolism Profiling of Curcumin Diethyl Disuccinate”. The sample at 0 min was prepared as other samples except that heat-inactivated HLS9, MLS9, DLS9 and RLS9 (80°C for 20 min; 1 mg/ml protein) were used. Duplicates were conducted for each experiment.
# The peak area ratios of CDD and curcumin to internal standard in the supernatant were determined. The percent contents of CDD and curcumin were plotted against incubation time. The depletion of CDD was calculated with reference to the initial concentration. The saturated substrate was defined as % depletion less than 30.
# [3] = test system: human LS9 (HLS9; pooled); test: In vitro metabolism profiling of CDD in human liver S9 (1 mg/ml); type: in vitro ADME
# Description: (§1) The metabolism profiles of CDD were investigated against HLS9, MLS9, DLS9, and RLS9. A stock solution of CDD was prepared at 150 µM in 50% acetonitrile in water before use. The metabolism study was initiated by spiking 735 µl of preincubated LS9 with 15 µl of CDD stock solution, and the mixture was subsequently incubated at 37°C. The final concentrations of CDD and LS9 were 3 μM and 1 mg/ml, respectively. A 50-µl aliquot from the mixture was collected at 0.5, 1, 2, 3, 4, 5, 10, 15, 30, 45, 60, 90, and 120 min and immediately mixed with 100 µl of ice-cold acetonitrile containing 0.45 µM of internal standard DMC to terminate the metabolic reaction. […] The sample at the initial time point (0 min) was prepared as the other samples, except that heat-inactivated HLS9, MLS9, DLS9, and RLS9 (80°C for 20 min; 1 mg/ml protein) were used.
# (§2) The UHPLC system consisted of an Agilent series 1290 quaternary pump with an online degasser, autosampler, column oven, and diode array detector. The mobile phase was composed of (A) 0.1% (v/v) formic acid in acetonitrile and (B) 0.1% (v/v) formic acid in water. Each solution was filtered through a nylon filter (pore size, 0.22 µm; MS® Membrane Filters; Membrane Solutions, United States) before use. The mobile phase flow rate was kept at 1.2 ml/min in a gradient mode using the following elution program: 0–3.0 min, initial A-B (40:60, v/v); 4.5–7.0 min, isocratic elution A-B [50:50, (v/v); 8.5–11.0 min, isocratic elution A-B (60:40, v/v); and 12.0–17.0 min, isocratic elution A-B (40:60, v/v)]. CDD, curcumin, and MSCUR in the supernatant were partitioned using a C8 column (4.6 mm × 50 mm, 2.7 µm; HALO, Advanced Materials Technology, United States) with reference to DMC. The detection wavelength was set at 400 nm (λ max(CDD) = 400 nm, λ max(curcumin) = 427 nm, λ max(MSCUR) = 418 nm, and λ max(DMC) = 421 nm). The column was maintained at 35°C throughout the run, and the supernatant injection volume was set at 20 µl.
# (§3) The concentrations of CDD, curcumin, and MSCUR in the supernatant were determined from the standard plots, which were prepared by spiking individual working solutions of the compounds to heat-inactivated HLS9, MLS9, DLS9, and RLS9 ([Alcorn et al., 2007]; [Montoro-Garcia et al., 2009]; [Singh et al., 2010]). These working standards were extracted with 100 µl of ice-cold acetonitrile containing 0.45 µM of DMC and then 120 μl of the supernatant was diluted with 40 μl of water prior to the UHPLC analysis. The peak area ratios of CDD, curcumin, and MSCUR to the internal standard were computed against linear concentration ranges of 0.025–4.5 µM CDD, 0.025–4.5 µM curcumin, and 0.0125–0.75 µM MSCUR, respectively, with the coefficient of determination (r^2) values greater than 0.99.
# (§4) The percent content of CDD and the metabolites formed upon its incubation with LS9, namely, curcumin and MSCUR, was plotted against incubation time.
# (§5) The following equations were adopted to describe the changes in CDD and MSCUR content over time (t): A = A0e^−k1t (2) B= k1A0/k2−k1(e^−k1t−e^−k2t), (3) where A0 is the CDD concentration at time 0, k 1 is the degradation rate constant of CDD, and k 2 is the degradation rate constant of MSCUR. k 1 and k 2 were determined by using Eqs. 2 and 3, respectively, with nonlinear regression analysis using the SOLVER function of Microsoft Excel for Office 365 MSO (16.0.12527.20986) ([Brown, 2001]). The half-life (t 1/2) was calculated using Eq. 4: t1/2=0.693/k (4)
# (§6) The in vitro intrinsic clearance (CLint,in vitro) of CDD and MSCUR in LS9 was calculated using Eq. 5: CLint, in vitro= k × [V]incubation(ml)/[P]incubation(mg protein), (5) where [V]incubation is the incubation volume in ml, and [P]incubation is the amount of LS9. […]
# [4] = as above; type: in vitro ADME; details: pooled liver S9; human LS9 1 mg/ml; read-out: t 1/2 (CDD)
# Description: as §1, §2, §3, §4, §5, §6
smiles,measurement,setting,value
"CCOC(=O)CCC(=O)Oc1ccc(/C=C/C(=O)/C=C(O)/C=C/c2ccc(OC(=O)CCC(=O)OCC)c(OC)c2)cc1OC [CDD, curcumin diethyl disuccinate]",log P,[1],2.55
same,% CDD remaining,[2]; 0.5 min,82.81%
same,%Depletion of CDD,[2]; 0.5 min,17.19%
same,% CDD remaining,[2]; 1 min,78.14%
same,%Depletion of CDD,[2]; 1 min (selected incubation time),22% and 21.86%
same,% CDD remaining,[2]; 2 min,62.71%
same,%Depletion of CDD,[2]; 2 min,37.29%
same,% CDD remaining,[2]; 3 min,56.54%
same,%Depletion of CDD,[2]; 3 min,43.46%
same,% CDD remaining,[2]; 4 min,46.44%
same,%Depletion of CDD,[2]; 4 min,53.56%
same,% CDD remaining,[2]; 5 min,40.58%
same,%Depletion of CDD,[2]; 5 min,59.42%
same,"CLint, in vitro(CDD) in HLS9 higher than in DLS9",[3]; HLS9 vs DLS9,1.8 fold
same,"CLint, in vitro(CDD) in HLS9 higher than in MLS9",[3]; HLS9 vs MLS9,1.9 fold
same,"CLint, in vitro(CDD) in HLS9 higher than in RLS9",[3]; HLS9 vs RLS9,2.2 fold
same,"CLint, in vitro(CDD)",[3]; human LS9,1.51 ± 0.22 ml min^−1 mg protein^−1
same,k 1 (CDD),"[3]; human LS9 1 mg/ml, CDD 3 µM, 37°C",1.51 ± 0.22 min⁻¹
same,"CLint, in vivo(CDD)","[3]; human, scaled from CLint,in vitro with physiologically based scaling factors",282.18 ± 41.74 L/h/kg
same,"CLint, in vivo total","[3]; human, sum of CLint,in vivo(CDD) and CLint,in vivo(MSCUR)","2,533.38 ± 124.30 L h^−1 kg^−1"
same,CLH (predicted hepatic clearance),"[3]; human, well-stirred model, QH 20 ml min^−1 kg^−1, fup 0.0594",1.19 ± 4.61 × 10^–4 L h^−1 kg^−1
same,half-life,[4],27.6 ± 3.6 s
